According to patent publication US7150880B2, “Compositions containing creatine and creatinine and a methyl xanthine” (The Original Creatine Patent Co. Ltd., priority 1996, dated 2006):
Like-named read-outs stand apart in the source and are kept apart here.

What was measured:
[1] = human body; cited from earlier work
[2] = Vandeberg et al 1996 J. Appl. Physiology 80; cited from earlier work
[3] = Flavored drink of creatine plus creatinine formed by heating: stability at 22° C. and solubility at 3° C. (Example 4); assay type: physicochemical; settings: Example 4 drink at 3° C.
Experimental: The solution was cooled to room temperature.
In addition, the solution contained 15 percent Aloe Vera juice, flavoring and dextrose to sweeten.
Solutions from steps 1 and 2 were then mixed together and heated at 90° C. for 30 minutes to sterilize the mixture and then placed in a glass or plastic bottle and stored at 22° C.

[4] = Mole:mole creatinine to creatine ratios required for stability at 2, 22 and 39° C. over pH 3.8 to 8.25 (Example 5); settings: for time to reach stability: starting ratios close to equilibrium
Experimental: Using solutions from 1. above the following solutions were prepared at room temperature:
Triplicate samples were prepared.
The samples were capped and heat sterilized for 30 minutes at 90° C.
One set of samples was stored at 2° C., another set at 22° C. and the final set stored at 39°.

[5] = not given; remark: listed apart in the source
[6] = ingestion of 20 to 30 g per day for several days; cited from earlier work

Compound: Cn1c(=O)c2c(ncn2C)n(C)c1=O [caffeine]
- half life of ingested caffeine [1]: 5 to 6 h
- effect on ergogenic action of muscle creatine loading [2]: counteracted the ergogenic action of muscle creatine loading

Compound: CN(CC(=O)O)C(=N)N [creatine]
- precipitation in refrigerator [3]: did not precipitate out
- time to reach equilibrium (solution of low pH, composed initially of just creatine, 22° C. (FIG. 2)): up to 8 weeks
- time to reach stability (starting with creatine and no creatinine, 22° C.): ≥ 4 weeks
- mean change in creatine concentration between weeks 5 and 6 ([4]; 39° C., mean (SD)): +0.76 (SD 1.3) mmol/l
- percentage change from weeks 5 and 6 ([4]; 39° C., mean (SD)): 3.1 (3.8) %
- time to reach stability ([4]; incubated at 39° C.): < 5 weeks
- time to reach stability ([4]; incubated between 2 and 39° C.): ≤ 6 weeks
- period remaining creatine stable after heating ([5]; pH's 3 and 4, after 30 minutes at 90° C., 22° C.): at least 95 days
- stability of creatine with sufficient creatinine ([5]; pH's 5, 6 and 7, creatinine:creatine monohydrate 1:1, heated 30 minutes at 90° C.): exceptionally stable
- loss of creatine during the heating period ([5]; pH's 6 and 7, 90° C. 30 minutes, creatinine 1:1 w/w): no loss of creatine

Compound: CN(CC(=O)O)C(=N)N.O [creatine monohydrate]
- increase in human skeletal muscle total creatine content [6]: greater than 20%
- increase between weeks 5 and 6 as creatine monohydrate ([4]; 39° C.): 0.113 g per litre
